# Source: patent US10202361B2, “Pyridazinones as herbicides” (E I DU PONT DE NEMOURS AND COMPANY, priority 2014, dated 2019)
# Read-outs that look alike come from different tables or passages of the source.
# Legend:
# Assay in all cases: Test C pre-/postemergence greenhouse herbicide test
# Format in all cases: in vivo
# corn (Zea mays) = details: Zea mays, Corn, read-out: Plant response rating; for plant injury at 31 g/ha: 31 g ai/ha; for plant injury at 62 g/ha: 62 g ai/ha; for plant injury at 125 g/ha: 125 g ai/ha; for plant injury at 250 g/ha: 250 g ai/ha
# Outline: (§1)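 Visual ratings, 0 = no effect, 100 = complete control, vs untreated controls at 13–15 d. Pre: seeds in loam/sand. Post: 2–18 cm plants (1–4 leaf), peat/vermiculite mix. Surfactant-containing solvent formulation; greenhouse.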
# [1] = system: foxtail, giant (giant foxtail, Setaria faberii); details: Setaria faberi, Foxtail, Giant, read-out: Plant response rating; for pest or weed control at 31 g/ha: 31 g ai/ha; for pest or weed control at 62 g/ha: 62 g ai/ha; for pest or weed control at 125 g/ha: 125 g ai/ha; for pest or weed control at 250 g/ha: 250 g ai/ha
# Outline: as §1
# [2] = system: lambsquarters (Chenopodium album)
# Outline: as §1
# [3] = system: pigweed (Amaranthus retroflexus); details: Amaranthus retroflexus, Pigweed, read-out: Plant response rating; for pest or weed control at 62 g/ha: 62 g ai/ha; for pest or weed control at 125 g/ha: 125 g ai/ha; for pest or weed control at 250 g/ha: 250 g ai/ha
# Outline: as §1
# soybean (Glycine max) = details: Glycine max, Soybean, read-out: Plant response rating; for plant injury at 62 g/ha: 62 g ai/ha; for plant injury at 125 g/ha: 125 g ai/ha; for plant injury at 250 g/ha: 250 g ai/ha
# Outline: as §1
# [4] = system: velvetleaf (Abutilon theophrasti); details: Abutilon theophrasti, Velvetleaf, read-out: Plant response rating; for pest or weed control at 62 g/ha: 62 g ai/ha; for pest or weed control at 125 g/ha: 125 g ai/ha; for pest or weed control at 250 g/ha: 250 g ai/ha
# Outline: as §1
# [5] = system: blackgrass (Alopecurus myosuroides); details: Alopecurus myosuroides, Blackgrass, read-out: Plant response rating; for pest or weed control at 31 g/ha: 31 g ai/ha; for pest or weed control at 62 g/ha: 62 g ai/ha; for pest or weed control at 125 g/ha: 125 g ai/ha; for pest or weed control at 250 g/ha: 250 g ai/ha
# Outline: as §1
# [6] = system: oilseed rape (Brassica napus); details: Oilseed Rape
# Outline: as §1
# [7] = system: morningglory (Ipomoea coccinea); details: Morningglory
# Outline: as §1
# [8] = system: ryegrass, Italian (Italian ryegrass, Lolium multiflorum); details: Lolium multiflorum, Ryegrass, Italian, read-out: Plant response rating; for pest or weed control at 31 g/ha: 31 g ai/ha; for pest or weed control at 62 g/ha: 62 g ai/ha; for pest or weed control at 125 g/ha: 125 g ai/ha; for pest or weed control at 250 g/ha: 250 g ai/ha
# Outline: as §1
# [9] = system: crabgrass, Large (large crabgrass, Digitaria sanguinalis); details: Digitaria sanguinalis, Crabgrass, Large, read-out: Plant response rating; for pest or weed control at 31 g/ha: 31 g ai/ha; for pest or weed control at 62 g/ha: 62 g ai/ha; for pest or weed control at 125 g/ha: 125 g ai/ha; for pest or weed control at 250 g/ha: 250 g ai/ha
# Outline: as §1
# [10] = system: nutsedge, yellow (yellow nutsedge, Cyperus esculentus); details: Cyperus, Nutsedge, Yellow, read-out: Plant response rating; for pest or weed control at 31 g/ha: 31 g ai/ha; for pest or weed control at 62 g/ha: 62 g ai/ha; for pest or weed control at 125 g/ha: 125 g ai/ha; for pest or weed control at 250 g/ha: 250 g ai/ha
# Outline: as §1
# [11] = post-emergence, Postemergence, 31 g ai/ha
compound,measurement,setting,value
"COc1cc(=O)n(-c2ccc(F)cc2)nc1Cc1ccnc(C(F)(F)F)c1 [Compound 17, 2-(4-fluorophenyl)-5-methoxy-6-[[2-(trifluoromethyl)-4-pyridinyl]methyl]-3 (2H)-pyridazinone]",plant injury at 31 g/ha,"corn (Zea mays); post-emergence, Postemergence",10%
same,plant injury at 62 g/ha,"corn (Zea mays); post-emergence, Postemergence",15%
same,plant injury at 125 g/ha,"corn (Zea mays); post-emergence, Postemergence",15%
same,plant injury at 250 g/ha,"corn (Zea mays); post-emergence, Postemergence",15%
same,plant injury at 31 g/ha,"corn (Zea mays); pre-emergence, Preemergence",45%
same,plant injury at 62 g/ha,"corn (Zea mays); pre-emergence, Preemergence",65%
same,plant injury at 125 g/ha,"corn (Zea mays); pre-emergence, Preemergence",85%
same,plant injury at 250 g/ha,"corn (Zea mays); pre-emergence, Preemergence",100%
same,pest or weed control at 31 g/ha,"[1]; post-emergence, Postemergence",10%
same,pest or weed control at 62 g/ha,"[1]; post-emergence, Postemergence",10%
same,pest or weed control at 125 g/ha,"[1]; post-emergence, Postemergence",20%
same,pest or weed control at 250 g/ha,"[1]; post-emergence, Postemergence",45%
same,pest or weed control at 31 g/ha,"[1]; pre-emergence, Preemergence",100%
same,pest or weed control at 62 g/ha,"[1]; pre-emergence, Preemergence",100%
same,pest or weed control at 125 g/ha,"[1]; pre-emergence, Preemergence",100%
same,pest or weed control at 250 g/ha,"[1]; pre-emergence, Preemergence",100%
same,Plant response rating,"[2]; Postemergence, 31 g ai/ha",75
same,Plant response rating,"[2]; Postemergence, 62 g ai/ha",75
same,Plant response rating,"[2]; Postemergence, 125 g ai/ha",90
same,Plant response rating,"[2]; Postemergence, 250 g ai/ha",90
same,Plant response rating,"[2]; Preemergence, 31 g ai/ha",95
same,Plant response rating,"[2]; Preemergence, 62 g ai/ha",95
same,Plant response rating,"[2]; Preemergence, 125 g ai/ha",95
same,Plant response rating,"[2]; Preemergence, 250 g ai/ha",98
same,pest or weed control at 62 g/ha,"[3]; post-emergence, Postemergence",60%
same,pest or weed control at 125 g/ha,"[3]; post-emergence, Postemergence",60%
same,pest or weed control at 250 g/ha,"[3]; post-emergence, Postemergence",70%
same,pest or weed control at 31 g/ha,"[3]; pre-emergence, Preemergence, 31 g ai/ha",100%
same,pest or weed control at 62 g/ha,"[3]; pre-emergence, Preemergence",100%
same,pest or weed control at 125 g/ha,"[3]; pre-emergence, Preemergence",100%
same,pest or weed control at 250 g/ha,"[3]; pre-emergence, Preemergence",100%
same,plant injury at 31 g/ha,soybean (Glycine max); [11],80%
same,plant injury at 62 g/ha,"soybean (Glycine max); post-emergence, Postemergence",90%
same,plant injury at 125 g/ha,"soybean (Glycine max); post-emergence, Postemergence",90%
same,plant injury at 250 g/ha,"soybean (Glycine max); post-emergence, Postemergence",90%
same,plant injury at 62 g/ha,"soybean (Glycine max); pre-emergence, Preemergence",55%
same,plant injury at 125 g/ha,"soybean (Glycine max); pre-emergence, Preemergence",95%
same,plant injury at 250 g/ha,"soybean (Glycine max); pre-emergence, Preemergence",98%
same,pest or weed control at 31 g/ha,[4]; [11],20%
same,pest or weed control at 62 g/ha,"[4]; post-emergence, Postemergence",20%
same,pest or weed control at 125 g/ha,"[4]; post-emergence, Postemergence",30%
same,pest or weed control at 250 g/ha,"[4]; post-emergence, Postemergence",45%
same,pest or weed control at 62 g/ha,"[4]; pre-emergence, Preemergence",75%
same,pest or weed control at 125 g/ha,"[4]; pre-emergence, Preemergence",100%
same,pest or weed control at 250 g/ha,"[4]; pre-emergence, Preemergence",100%
same,pest or weed control at 31 g/ha,"[5]; post-emergence, Postemergence",5%
same,pest or weed control at 62 g/ha,"[5]; post-emergence, Postemergence",5%
same,pest or weed control at 125 g/ha,"[5]; post-emergence, Postemergence",5%
same,pest or weed control at 250 g/ha,"[5]; post-emergence, Postemergence",5%
same,pest or weed control at 31 g/ha,"[5]; pre-emergence, Preemergence",50%
same,pest or weed control at 62 g/ha,"[5]; pre-emergence, Preemergence",80%
same,pest or weed control at 125 g/ha,"[5]; pre-emergence, Preemergence",90%
same,pest or weed control at 250 g/ha,"[5]; pre-emergence, Preemergence",95%
same,Plant response rating,"[6]; Postemergence, 31 g ai/ha",5
same,Plant response rating,"[6]; Postemergence, 62 g ai/ha",20
same,Plant response rating,"[6]; Postemergence, 125 g ai/ha",25
same,Plant response rating,"[6]; Preemergence, 31 g ai/ha",50
same,Plant response rating,"[6]; Preemergence, 62 g ai/ha",100
same,Plant response rating,"[6]; Preemergence, 125 g ai/ha",100
same,Plant response rating,"[6]; Preemergence, 250 g ai/ha",100
same,Plant response rating,"[7]; Postemergence, 31 g ai/ha",65
same,Plant response rating,"[7]; Postemergence, 62 g ai/ha",65
same,Plant response rating,"[7]; Postemergence, 125 g ai/ha",65
same,Plant response rating,"[7]; Postemergence, 250 g ai/ha",70
same,Plant response rating,"[7]; Preemergence, 31 g ai/ha",85
same,Plant response rating,"[7]; Preemergence, 62 g ai/ha",85
same,Plant response rating,"[7]; Preemergence, 125 g ai/ha",100
same,Plant response rating,"[7]; Preemergence, 250 g ai/ha",100
same,pest or weed control at 31 g/ha,"[8]; post-emergence, Postemergence",5%
same,pest or weed control at 62 g/ha,"[8]; post-emergence, Postemergence",5%
same,pest or weed control at 125 g/ha,"[8]; post-emergence, Postemergence",5%
same,pest or weed control at 250 g/ha,"[8]; post-emergence, Postemergence",5%
same,pest or weed control at 31 g/ha,"[8]; pre-emergence, Preemergence",5%
same,pest or weed control at 62 g/ha,"[8]; pre-emergence, Preemergence",10%
same,pest or weed control at 125 g/ha,"[8]; pre-emergence, Preemergence",70%
same,pest or weed control at 250 g/ha,"[8]; pre-emergence, Preemergence",75%
same,pest or weed control at 31 g/ha,"[9]; post-emergence, Postemergence",10%
same,pest or weed control at 62 g/ha,"[9]; post-emergence, Postemergence",10%
same,pest or weed control at 125 g/ha,"[9]; post-emergence, Postemergence",15%
same,pest or weed control at 250 g/ha,"[9]; post-emergence, Postemergence",40%
same,pest or weed control at 31 g/ha,"[9]; pre-emergence, Preemergence",100%
same,pest or weed control at 62 g/ha,"[9]; pre-emergence, Preemergence",100%
same,pest or weed control at 125 g/ha,"[9]; pre-emergence, Preemergence",100%
same,pest or weed control at 250 g/ha,"[9]; pre-emergence, Preemergence",100%
same,pest or weed control at 31 g/ha,"[10]; post-emergence, Postemergence",5%
same,pest or weed control at 62 g/ha,"[10]; post-emergence, Postemergence",5%
same,pest or weed control at 125 g/ha,"[10]; post-emergence, Postemergence",10%
same,pest or weed control at 250 g/ha,"[10]; post-emergence, Postemergence",10%
same,pest or weed control at 31 g/ha,"[10]; pre-emergence, Preemergence",20%
same,pest or weed control at 62 g/ha,"[10]; pre-emergence, Preemergence",30%
same,pest or weed control at 125 g/ha,"[10]; pre-emergence, Preemergence",55%
same,pest or weed control at 250 g/ha,"[10]; pre-emergence, Preemergence",75%
